Experimental data from US20100009970A1, “COMPOSITIONS AND METHODS FOR TREATMENT OF VIRAL DISEASES” (Combinatorx (Singapore) Pte. Ltd., priority 2008, published 2010).
Where a name gives a salt, the structure may show the parent alone.

The compounds below were run on Huh7 cells expressing a subgenomic RNA replicon of Con1 (genotype 1b) sequence origin (assay: microbe, parasite or virus in culture). Details: Hepatitis C virus, Huh-7.

Row | SMILES | IC50 [µM]
1 | O=c1cc(N2CCOCC2)oc2c(-c3ccccc3)cccc12 [LY 294002, reference compound] | 3.4
2 | CCC(C)(C)C(=O)O[C@H]1C[C@@H](C)C=C2C=C[C@H](C)[C@H](CC[C@@H]3C[C@@H](O)CC(=O)O3)[C@H]21 [Simvastatin, simvastatin, reference compound] | 21.3
3 | CCN(CC)C(=S)SSC(=S)N(CC)CC [Disulfiram, reference compound] | 5.5
4 | CC(=O)[C@H]1CC[C@H]2[C@@H]3C=CC4=CC(=O)CC[C@@]4(C)[C@@H]3CC[C@]12C [Dydrogesterone, reference compound] | 2.75
5 | COc1cc(CNC(=O)CCCC/C=C/C(C)C)ccc1O [Capsaicin, reference compound] | 11.7
6 | C[C@]12Cc3c[nH]nc3C[C@@H]1CC[C@@H]1[C@@H]2CC[C@@]2(C)[C@H]1CC[C@]2(C)O [Stanozolol, stanozolol, reference compound] | 15.2
7 | N[C@H](Cc1cc(I)c(Oc2cc(I)c(O)c(I)c2)c(I)c1)C(=O)O [Dextrothyroxine (e.g., sodium), dextrothyroxine, reference compound] | 5
8 | CCCOc1ccc2nc(NC(=O)OC)[nH]c2c1 [Oxibendazole, reference compound] | 0.3
9 | CC1=C(O)C(=O)C=C2C1=CC=C1[C@@]2(C)CC[C@@]2(C)[C@@H]3C[C@](C)(C(=O)O)CC[C@]3(C)CC[C@]12C [Celastrol, reference compound] | 0.449
10 | C/C=C/C/C=C/CCC(=O)[C@H]1O[C@H]1C(N)=O [Cerulenin, reference compound] | 16.2
11 | CCOc1cc(N)c(Cl)cc1C(=O)NCC1CN(Cc2ccc(F)cc2)CCO1 (stereo not drawn) [Mosapride (e.g., citrate), mosapride, reference compound] | 10.9
12 | CNC(=O)Oc1cccc2ccccc12 [Carbaryl] | 9.65
13 | Nc1ncnc2c1ncn2[C@@H]1O[C@H](CO)[C@@H](O)[C@@H]1O [Vidarabine, vidarabine, reference compound] | 26.7
14 | CN(C)C/C=C(/c1ccc(Br)cc1)c1cccnc1 [Zimelidine (e.g., dihydrochloride), Zimelidine, reference compound] | 15.1
15 | CN1C[C@H](C(=O)N[C@]2(C)O[C@@]3(O)[C@@H]4CCCN4C(=O)[C@H](Cc4ccccc4)N3C2=O)C[C@@H]2c3cccc4[nH]cc(c34)C[C@H]21 [Dihydroergotamine (e.g., mesylate), dihydroergotamine, reference compound] | 22.8
16 | CCCCOc1cc(C(=O)OCCN(CC)CC)ccc1N [Benoxinate (e.g., hydrochloride), benoxinate, reference compound] | 3.02
17 | Nc1ccccc1OCCCCCOc1ccccc1N [2,2′-(Pentamethylenedioxy)dianiline, reference compound] | 0.27
18 | O=C(CCCCCCC(=O)NO)NO [Suberohydroxamic acid, suberohydroxamic acid, reference compound] | 4.02
19 | O=c1[nH]c(=O)n([C@H]2C[C@H](O)[C@@H](CO)O2)cc1F [Floxuridine, floxuridine, reference compound] | 0.0045
20 | COc1ccc2c(c1OC)C(=O)O[C@@H]2[C@H]1c2c(cc3c(c2OC)OCO3)CCN1C [Noscapine, reference compound] | 15.8

Row | SMILES | IC50 [µM]
21 | COc1ccc(O)cc1 [Mequinol, reference compound] | 18.7
22 | COC(=O)Nc1nc2ccc([S+]([O-])c3ccccc3)cc2[nH]1 (stereo not drawn) [Oxfendazole, reference compound] | 7.3
23 | COc1cc(C(=O)OCCCN2CCCN(CCCOC(=O)c3cc(OC)c(OC)c(OC)c3)CC2)cc(OC)c1OC [Dilazep (e.g., dihydrochloride), Dilazep, reference compound] | 13.9
24 | COc1cc2c(cc1OC)-c1c/c(=N\c3c(C)cc(C)cc3C)n(C)c(=O)n1CC2 [Trequinsin (e.g., hydrochloride), Trequinsin, reference compound] | 2.93
25 | CN(C)C(=S)SSC(=S)N(C)C [Thiram, thiram] | 3.64
26 | COC(=O)[C@H]1[C@H]2C[C@@H]3c4[nH]c5cc(OC)ccc5c4CCN3C[C@H]2C[C@@H](OC(=O)c2cc(OC)c(OC)c(OC)c2)[C@@H]1OC [Reserpine, reference compound] | 25.3
27 | COC(=O)Nc1nc2ccc(Sc3ccccc3)cc2[nH]1 [Fenbendazole, reference compound] | 0.419
28 | CCN(CC)CCCC(C)Nc1ccnc2cc(Cl)ccc12 (stereo not drawn) [Chloroquine (e.g., phosphate), Chloroquine, reference compound] | 4.78
29 | O=C1CC(O)(c2ccccc2)Oc2ccccc21 (stereo not drawn) [2-Hydroxyflavanone, 2-hydroxyflavanone, reference compound] | 2.48
30 | N=c1ccn2c(n1)O[C@H]1[C@H](O)[C@@H](CO)O[C@H]12 [Cyclocytidine (e.g., hydrochloride), Cyclocytidine, reference compound] | 0.183
31 | N[C@@H](Cc1cc(I)c(Oc2cc(I)c(O)c(I)c2)c(I)c1)C(=O)O [Levothyroxine (e.g., sodium), Levothyroxine, reference compound] | 3.79
32 | CCC(C)(C)C(=O)O[C@H]1C[C@@H](C)C=C2C=C[C@H](C)[C@H](CC[C@@H](O)C[C@@H](O)CC(=O)O)[C@H]21 [Simvastatin hydroxy acid, ammonium salt, simvastatin hydroxy acid, ammonium salt, reference compound] | 13.4
33 | COC(=O)[C@H]1[C@H]2C[C@@H]3c4[nH]c5cc(OC)ccc5c4CCN3C[C@H]2C[C@@H](OC(=O)/C=C/c2cc(OC)c(OC)c(OC)c2)[C@@H]1OC [Rescinnamine, reference compound] | 7.88
34 | CN1CCN(CCCN2c3ccccc3Sc3ccc(C(F)(F)F)cc32)CC1 [Trifluoperazine (e.g., hydrochloride), Trifluoperazine, reference compound] | 4.97
35 | CC(C)c1nc(CN(C)C(=O)N[C@H](C(=O)N[C@@H](Cc2ccccc2)C[C@H](O)[C@H](Cc2ccccc2)NC(=O)OCc2cncs2)C(C)C)cs1 [Ritonavir, reference compound] | 14.9
36 | CC1=C(/C=C/C(C)=C/C=C/C(C)=C/C=C/C=C(C)/C=C/C=C(C)/C=C/C2=C(C)CCCC2(C)C)C(C)(C)CCC1 [Beta-Carotene] | 18.5
37 | CN(C)CCCN1c2ccccc2Sc2ccccc21 [Promazine (e.g., hydrochloride), promazine, reference compound] | 16.1
38 | C#C[C@]1(O)CC[C@H]2[C@@H]3CCc4cc(OC5CCCC5)ccc4[C@H]3CC[C@@]21C [Quinestrol, reference compound] | 5.43
39 | Oc1cccc2c(O)nccc12 [1,5-Isoquinolinediol, reference compound] | 25.9
40 | CC(C)C(C(=O)OC(C#N)c1cccc(Oc2ccccc2)c1)c1ccc(Cl)cc1 (stereo not drawn) [Fenvalerate] | 18.9

Row | SMILES | IC50 [µM]
41 | O=C(c1ccc(OCCN2CCCCC2)cc1)c1c(-c2ccc(O)cc2)sc2cc(O)ccc12 [Raloxifene (e.g., hydrochloride), Raloxifene, reference compound] | 3.74
42 | OC(CCCN1CCCCC1)(c1ccccc1)c1ccccc1 [Diphenidol (e.g., hydrochloride), Diphenidol, reference compound] | 25.4
43 | Nc1ccc(OCCCCCOc2ccc(N)cc2)cc1 [1,5-Bis(4-aminophenoxy)pentane, reference compound] | 1.7
44 | CCCCOc1cc(C(=O)NCCN(CC)CC)c2ccccc2n1 [Dibucaine (e.g., hydrochloride), Dibucaine, reference compound] | 6.68
45 | CCC(C)(C)c1ccc(CC(C)CN2C[C@@H](C)O[C@@H](C)C2)cc1 (stereo partly drawn) [Amorolfine (e.g., hydrochloride), amorolfine, reference compound] | 1.62
46 | CC1(C)C(/C=C/C=C/C=C/C=C2\N(CCCCS(=O)(=O)O)c3ccc4ccccc4c3C2(C)C)=[N+](CCCCS(=O)(=O)[O-])c2ccc3ccccc3c21 [Indocyanine Green, reference compound] | 8.13
47 | O=c1[nH]cc(F)c(=O)[nH]1 [Fluorouracil, reference compound] | 18.7
48 | N=C(NCc1ccccc1)NC(=O)c1nc(Cl)c(N)nc1N [Benzamil (e.g., HCl), benzamil, reference compound] | 4.73
49 | Nc1nc[nH]n1 [Amitrole] | 14.6
50 | CN(C)CCOc1ccc(/C(=C(/CCCl)c2ccccc2)c2ccccc2)cc1 [Toremifene, reference compound] | 15.9
51 | CC[N+](C)(CC)CCC[n+]1c(-c2ccccc2)c2cc(N)ccc2c2ccc(N)cc21 [Propidium (e.g., iodide), Propidium, reference compound] | 9.38
52 | C/C=C(/C(=C/C)c1ccc(O)cc1)c1ccc(O)cc1 [Dienestrol, reference compound] | 16.5
53 | Nc1ccn([C@@H]2O[C@H](CO)[C@@H](O)[C@@H]2O)c(=O)n1 [Cytarabine, reference compound] | 0.117
54 | Cc1cccc(CN2CCN(C(c3ccccc3)c3ccc(Cl)cc3)CC2)c1 (stereo not drawn) [Meclizine, meclizine, reference compound] | 14.6
55 | CC(C=NNC(=N)N)=NNC(=N)N [Methylglyoxal bis(guanylhydrazone) dihydrochloride hydrate, reference compound] | 10.8
56 | CCN(CC)CCCC(C)Nc1c2ccc(Cl)cc2nc2ccc(OC)cc12 (stereo not drawn) [Quinacrine, reference compound] | 4.17
57 | COCCCC/C(=N\OCCN)c1ccc(C(F)(F)F)cc1 [Fluvoxamine (e.g., maleate), Fluvoxamine, reference compound] | 23.8
58 | C=C1C(=O)O[C@H]2[C@H]1CC/C(C)=C/CC[C@@]1(C)O[C@@H]21 [Parthenolide, reference compound] | 2.69

Same assay, conditions: Hepatitis C virus, Huh-7, read-out: Max Effect@CC30 (inhibition)

Row | SMILES | Emax [%]
59 | COc1cccc(Oc2ccc(Br)cc2CN(C)C)c1 [Compound 38, (5-bromo-2-(3-methoxyphenoxy)phenyl)-N,N-dimethylmethanamine] | 42
60 | CNCc1cc(S(N)(=O)=O)ccc1Oc1ccc(Br)cc1 [Compound 44, 4-(4-bromophenoxy)-3-((methylamino)methyl)benzenesulfonamide] | 32.1
